# Like-named read-outs stand apart in the source and are kept apart here.
# Molecular target: T1, F508delCFTR (Homo sapiens, UniProt P13569, DEL508-508)
# T1 construct: expressed in transfected cells; host or cells: CFBE41o- (human lung derived epithelial cell line), doxycycline-inducible expression
# Assay: Cell Surface Expression-Horse Radish Peroxidase (CSE-HRP) assay
# Type: cell-based
# Details: CFBE41o-F508delCFTR-HRP cells; for Maximum % activity (with co-corrector): with co-corrector (2 μM); for Maximum % activity (with co-corrector) / Maximum % activity (without co-corrector): normalized to on-plate positive control, highest concentration 20 μM
# In short: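 CFBE41o- cells expressed F508delCFTR with HRP in the fourth exofacial loop, induced by 0.5 μg/mL doxycycline for 72 h at 37 °C. Compounds alone or with 2 μM co-corrector ran 18–24 h at 33 °C, 8-point 3-fold from 20 μM. Washed-cell luminol luminescence was normalized to DMSO and positive control, fitted sigmoidally for EC50 (three plates).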
# [1] = test compound without co-corrector, 18-24 hours at 33° C., read-out: EC50 (without co-corrector)
# [2] = with co-corrector (2 μM of 3-[(2R,4R)-4-({[1-(2,2-difluoro-1,3-benzodioxol-5-yl)cyclopropyl]carbonyl}amino)-7-methoxy-3,4-dihydro-2H-chromen-2-yl]benzoic acid), read-out: EC50 (with co-corrector)
# T1 sequence (P13569 with tags, fused parts or gaps DEL508-508): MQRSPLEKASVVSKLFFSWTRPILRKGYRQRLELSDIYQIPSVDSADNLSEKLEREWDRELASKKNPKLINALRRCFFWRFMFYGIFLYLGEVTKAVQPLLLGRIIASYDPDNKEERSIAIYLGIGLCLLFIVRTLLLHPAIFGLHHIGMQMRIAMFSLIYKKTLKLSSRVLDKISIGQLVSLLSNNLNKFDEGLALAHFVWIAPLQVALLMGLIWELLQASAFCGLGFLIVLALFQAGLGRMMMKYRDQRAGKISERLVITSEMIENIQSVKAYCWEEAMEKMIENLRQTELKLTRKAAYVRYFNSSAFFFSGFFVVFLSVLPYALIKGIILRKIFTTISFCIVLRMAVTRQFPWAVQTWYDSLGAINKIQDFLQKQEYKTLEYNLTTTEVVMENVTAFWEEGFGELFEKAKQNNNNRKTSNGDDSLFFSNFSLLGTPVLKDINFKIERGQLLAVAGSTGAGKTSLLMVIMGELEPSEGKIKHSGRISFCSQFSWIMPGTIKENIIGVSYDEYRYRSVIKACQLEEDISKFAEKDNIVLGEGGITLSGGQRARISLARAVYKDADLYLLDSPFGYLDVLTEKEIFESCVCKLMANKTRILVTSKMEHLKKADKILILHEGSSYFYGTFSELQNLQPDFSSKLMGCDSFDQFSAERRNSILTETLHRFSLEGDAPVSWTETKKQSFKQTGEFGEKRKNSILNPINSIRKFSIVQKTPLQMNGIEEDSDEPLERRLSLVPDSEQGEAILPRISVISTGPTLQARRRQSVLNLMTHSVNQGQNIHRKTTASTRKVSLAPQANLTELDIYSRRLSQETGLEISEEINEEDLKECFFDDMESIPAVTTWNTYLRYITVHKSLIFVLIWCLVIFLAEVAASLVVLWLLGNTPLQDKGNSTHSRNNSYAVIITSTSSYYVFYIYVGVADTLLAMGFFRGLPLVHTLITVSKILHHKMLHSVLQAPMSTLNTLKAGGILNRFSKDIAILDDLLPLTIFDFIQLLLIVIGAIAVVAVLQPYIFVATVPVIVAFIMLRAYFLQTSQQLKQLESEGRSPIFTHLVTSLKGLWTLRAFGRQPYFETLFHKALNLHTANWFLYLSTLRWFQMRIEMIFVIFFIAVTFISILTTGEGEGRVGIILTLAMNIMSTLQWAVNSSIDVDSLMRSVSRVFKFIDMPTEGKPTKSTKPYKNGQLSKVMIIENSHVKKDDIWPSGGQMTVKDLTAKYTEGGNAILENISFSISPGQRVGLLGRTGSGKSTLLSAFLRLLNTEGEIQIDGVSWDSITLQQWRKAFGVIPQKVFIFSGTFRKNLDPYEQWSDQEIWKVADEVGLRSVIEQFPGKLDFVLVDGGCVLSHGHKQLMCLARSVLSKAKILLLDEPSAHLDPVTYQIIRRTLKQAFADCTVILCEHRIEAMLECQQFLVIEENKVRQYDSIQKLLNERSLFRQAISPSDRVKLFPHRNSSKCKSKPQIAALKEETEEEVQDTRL
SMILES,EC50 [1],EC50 [2],Maximum % activity (with co-corrector),Maximum % activity (without co-corrector)
"COc1ncc(C(F)(F)F)cc1CO[C@H]1[C@H](C(C)(C)C)[C@@H](C(=O)O)N(C(=O)[C@@H]2CCCCO2)[C@H]1c1ccccc1-c1cccc(OC(F)(F)F)c1 [Example 201, (2S,3R,4S,5S)-3-tert-butyl-4-{[2-methoxy-5-(trifluoromethyl)pyridin-3-yl]methoxy}-1-[(2S)-oxane-2-carbonyl]-5-[3′-(trifluoromethoxy) [1,1′-biphenyl]-2-yl]pyrrolidine-2-carboxylic acid]",1000 to 10000 nM,1000 to 10000 nM,+++ (≥350),+++ (≥200)
"COc1ncc(C(F)(F)F)cc1CO[C@H]1[C@H](C(C)(C)C)[C@@H](C(=O)O)N(C(=O)[C@@H]2CCCCO2)[C@H]1c1ccccc1-c1ccc(Cl)cc1 [Example 202, (2S,3R,4S,5S)-3-tert-butyl-5-(4′-chloro[1,1′-biphenyl]-2-yl)-4-{[2-methoxy-5-(trifluoromethyl)pyridin-3-yl]methoxy}-1-[(2S)-oxane-2-carbonyl]pyrrolidine-2-carboxylic acid]",1000 to 10000 nM,1000 to 10000 nM,+++ (≥350),+++ (≥200)
"COc1ncc(C(F)(F)F)cc1CO[C@H]1[C@H](C(C)(C)C)[C@@H](C(=O)O)N(C(=O)[C@@H]2CCCCO2)[C@H]1c1ccccc1-c1ccc2c(c1)OCO2 [Example 203, (2S,3R,4S,5S)-5-[2-(2H-1,3-benzodioxol-5-yl)phenyl]-3-tert-butyl-4-{[2-methoxy-5-(trifluoromethyl)pyridin-3-yl]methoxy}-1-[(2S)-oxane-2-carbonyl]pyrrolidine-2-carboxylic acid]",1000 to 10000 nM,1000 to 10000 nM,+++ (≥350),+++ (≥200)
"COc1ncc(C(F)(F)F)cc1CO[C@H]1[C@H](C(C)(C)C)[C@@H](C(=O)O)N(C(=O)[C@@H]2CCCCO2)[C@H]1c1ccccc1-c1ccccc1F [Example 204, (2S,3R,4S,5S)-3-tert-butyl-5-(2′-fluoro[1,1′-biphenyl]-2-yl)-4-{[2-methoxy-5-(trifluoromethyl)pyridin-3-yl]methoxy}-1-[(2S)-oxane-2-carbonyl]pyrrolidine-2-carboxylic acid]",1000 to 10000 nM,< 1000 nM,+++ (≥350),+++ (≥200)
"COc1ccc(-c2ccccc2[C@H]2[C@@H](OCc3cc(C(F)(F)F)cnc3OC)[C@H](C(C)(C)C)[C@@H](C(=O)O)N2C(=O)[C@@H]2CCCCO2)cn1 [Example 205, (2S,3R,4S,5S)-3-tert-butyl-5-[2-(6-methoxypyridin-3-yl)phenyl]-4-{[2-methoxy-5-(trifluoromethyl)pyridin-3-yl]methoxy}-1-[(2S)-oxane-2-carbonyl]pyrrolidine-2-carboxylic acid]",1000 to 10000 nM,1000 to 10000 nM,+++ (≥350),++ (≥100 and <200)
"COc1ncc(C(F)(F)F)cc1CO[C@H]1[C@H](C(C)(C)C)[C@@H](C(=O)O)N(C(=O)[C@@H]2CCCCO2)[C@H]1c1ccccc1-c1ccc(OC(F)(F)F)cc1 [Example 206, (2S,3R,4S,5S)-3-tert-butyl-4-{[2-methoxy-5-(trifluoromethyl)pyridin-3-yl]methoxy}-1-[(2S)-oxane-2-carbonyl]-5-[4′-(trifluoromethoxy) [1,1′-biphenyl]-2-yl]pyrrolidine-2-carboxylic acid]",1000 to 10000 nM,1000 to 10000 nM,+++ (≥350),+++ (≥200)
"COc1ncc(C(F)(F)F)cc1CO[C@H]1[C@H](C(C)(C)C)[C@@H](C(=O)O)N(C(=O)[C@@H]2CCCCO2)[C@H]1c1ccccc1-c1ccc(C#N)cc1 [Example 207, (2S,3R,4S,5S)-3-tert-butyl-5-(4′-cyano[1,1′-biphenyl]-2-yl)-4-{[2-methoxy-5-(trifluoromethyl)pyridin-3-yl]methoxy}-1-[(2S)-oxane-2-carbonyl]pyrrolidine-2-carboxylic acid]",1000 to 10000 nM,1000 to 10000 nM,+++ (≥350),++ (≥100 and <200)
"COc1ncc(C(F)(F)F)cc1CO[C@H]1[C@H](C(C)(C)C)[C@@H](C(=O)O)N(C(=O)[C@@H]2CCCCO2)[C@H]1c1ccccc1-c1ccc(C(F)(F)F)nc1 [Example 208, (2S,3R,4S,5S)-3-tert-butyl-4-{[2-methoxy-5-(trifluoromethyl)pyridin-3-yl]methoxy}-1-[(2S)-oxane-2-carbonyl]-5-{2-[6-(trifluoromethyl)pyridin-3-yl]phenyl}pyrrolidine-2-carboxylic acid]",1000 to 10000 nM,1000 to 10000 nM,+++ (≥350),+++ (≥200)
"CCOc1cncc(-c2ccccc2[C@H]2[C@@H](OCc3cc(C(F)(F)F)cnc3OC)[C@H](C(C)(C)C)[C@@H](C(=O)O)N2C(=O)[C@@H]2CCCCO2)c1 [Example 209, (2S,3R,4S,5S)-3-tert-butyl-5-[2-(5-ethoxypyridin-3-yl)phenyl]-4-{[2-methoxy-5-(trifluoromethyl)pyridin-3-yl]methoxy}-1-[(2S)-oxane-2-carbonyl]pyrrolidine-2-carboxylic acid]",1000 to 10000 nM,1000 to 10000 nM,+++ (≥350),++ (≥100 and <200)
"COc1ccc(C(C)(C)C)cc1CO[C@H]1[C@H](C(C)(C)C)[C@@H](C(=O)O)N(C(=O)[C@@H]2CCCCO2)[C@H]1c1cccc2ccccc12 [Example 211, (2S,3R,4S,5S)-3-tert-butyl-4-[(5-tert-butyl-2-methoxyphenyl)methoxy]-5-(naphthalen-1-yl)-1-[(2S)-oxane-2-carbonyl]pyrrolidine-2-carboxylic acid]",1000 to 10000 nM,< 1000 nM,+++ (≥350),+++ (≥200)
"COc1ncc(C(F)(F)F)cc1CO[C@H]1[C@H](C(C)(C)C)[C@@H](C(=O)O)N(C(=O)[C@@H]2CCCCO2)[C@H]1c1cccc2ccoc12 [Example 212, (2S,3R,4S,5S)-5-(1-benzofuran-7-yl)-3-tert-butyl-4-{[2-methoxy-5-(trifluoromethyl)pyridin-3-yl]methoxy}-1-[(2S)-oxane-2-carbonyl]pyrrolidine-2-carboxylic acid]",1000 to 10000 nM,1000 to 10000 nM,+++ (≥350),++ (≥100 and <200)
"COc1ncc(C(F)(F)F)cc1CO[C@H]1[C@H](C(C)(C)C)[C@@H](C(=O)O)N(C(=O)[C@@H]2CCCCO2)[C@H]1c1ccccc1CC(C)C [Example 213, (2S,3R,4S,5S)-3-tert-butyl-4-{[2-methoxy-5-(trifluoromethyl)pyridin-3-yl]methoxy}-5-[2-(2-methylpropyl)phenyl]-1-[(2S)-oxane-2-carbonyl]pyrrolidine-2-carboxylic acid]",1000 to 10000 nM,< 1000 nM,+++ (≥350),+++ (≥200)
"COc1cccc(S(=O)(=O)N2[C@H](C(=O)O)[C@@H](C(C)(C)C)[C@H](OCc3cc(C4CCC4)cnc3OC)[C@@H]2c2ccccc2C2CC2)n1 [Example 214, (2S,3R,4S,5S)-3-tert-butyl-4-[(5-cyclobutyl-2-methoxypyridin-3-yl)methoxy]-5-(2-cyclopropylphenyl)-1-(6-methoxypyridine-2-sulfonyl)pyrrolidine-2-carboxylic acid]",1000 to 10000 nM,1000 to 10000 nM,++ (≥150 and <350),+ (<100)
"COc1ccc(C2(C)CCC2)cc1CO[C@H]1[C@H](C(C)(C)C)[C@@H](C(=O)O)N(C(=O)[C@@H]2CCCCO2)[C@H]1c1ccccc1C [Example 215, (2S,3R,4S,5S)-3-tert-butyl-4-{[2-methoxy-5-(1-methylcyclobutyl)phenyl]methoxy}-5-(2-methylphenyl)-1-[(2S)-oxane-2-carbonyl]pyrrolidine-2-carboxylic acid]",< 1000 nM,< 1000 nM,+++ (≥350),+++ (≥200)
"COc1ncc(C(F)(F)F)cc1CO[C@H]1[C@H](C(C)(C)C)[C@@H](C(=O)O)N(C(=O)[C@@H]2CCCCO2)[C@H]1c1cccc2c1OCC2 [Example 216, (2S,3R,4S,5S)-3-tert-butyl-5-(2,3-dihydro-1-benzofuran-7-yl)-4-{[2-methoxy-5-(trifluoromethyl)pyridin-3-yl]methoxy}-1-[(2S)-oxane-2-carbonyl]pyrrolidine-2-carboxylic acid]",1000 to 10000 nM,< 1000 nM,+++ (≥350),+ (<100)
"COc1ncc(C2CC2)cc1CO[C@H]1[C@H](C(C)(C)C)[C@@H](C(=O)O)N(C(=O)[C@@H]2CCCCO2)[C@H]1c1ccccc1C [Example 217, (2S,3R,4S,5S)-3-tert-butyl-4-[(5-cyclopropyl-2-methoxypyridin-3-yl)methoxy]-5-(2-methylphenyl)-1-[(2S)-oxane-2-carbonyl]pyrrolidine-2-carboxylic acid]",1000 to 10000 nM,< 1000 nM,+++ (≥350),+++ (≥200)

# Reference: patent US10399940B2, “Substituted pyrrolidines and methods of use” (AbbVie S.à.r.l., priority 2016, dated 2019)
